Biological target: GLP-1R (Homo sapiens, UniProt P43220)
Assay: GLP-1R Activation - cAMP Assay
Assay type: cell-based
Conditions: cAMP increase in CHO cells stably expressing GLP-1R; each compound run on one of the two cAMP assays (Assay 1 or Assay 2, not specified)
Procedure, shortened: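 CHO cells stably expressing GLP-1R, plated at 1,000 cells/well overnight, then equilibrated 1 h in HBSS with 20 mM Hepes and 0.1% BSA. Agonist added as 10-point dose response for 30 min at 37 °C. cAMP measured by HTRF (Cisbio Gs Dynamic kit); EC50 from sigmoidal fit.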

Chain of GLP-1R (P43220 24-463): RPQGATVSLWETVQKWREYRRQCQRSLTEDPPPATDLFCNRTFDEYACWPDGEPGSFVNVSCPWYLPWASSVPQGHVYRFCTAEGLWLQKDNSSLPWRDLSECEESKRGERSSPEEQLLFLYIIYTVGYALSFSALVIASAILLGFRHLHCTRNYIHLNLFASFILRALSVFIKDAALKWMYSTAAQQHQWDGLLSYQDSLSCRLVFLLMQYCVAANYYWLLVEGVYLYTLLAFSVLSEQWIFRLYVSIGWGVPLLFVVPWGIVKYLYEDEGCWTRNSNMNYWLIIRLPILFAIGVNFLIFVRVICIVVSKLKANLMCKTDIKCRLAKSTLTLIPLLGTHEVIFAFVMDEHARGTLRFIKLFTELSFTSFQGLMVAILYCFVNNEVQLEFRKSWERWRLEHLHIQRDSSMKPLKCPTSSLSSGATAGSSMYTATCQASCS

Row | SMILES | EC50 [nM]
1 | CC1(C)COC[C@H]1n1c(Cc2cc(F)c(-c3ccc(F)c(OCc4ccc(C#N)cc4)n3)cc2F)nc2ccc(C(=O)O)nc21 [Example 396, (S)-2-(4-(6-((4-cyanobenzyl)oxy)-5-fluoropyridin-2-yl)-2,5-difluorobenzyl)-3-(4,4-dimethyltetrahydrofuran-3-yl)-3H-imidazo[4,5-b]pyridine-5-carboxylic acid] | 0.157
2 | Cc1cc(Cc2nc3c(F)cc(C(=O)O)cc3n2[C@@H]2COCC2(C)C)c(Cl)cc1-c1cccc(OCc2ccc(C#N)cc2F)n1 [Example 139, (S)-2-(2-chloro-4-(6-((4-cyano-2-fluorobenzyl)oxy)pyridin-2-yl)-5-methylbenzyl)-1-(4,4-dimethyltetrahydrofuran-3-yl)-4-fluoro-1H-benzo[d]imidazole-6-carboxylic Acid] | 0.023
3 | CC1(C)COC[C@H]1n1c(Cc2cc(F)c(-c3cccc(OCc4ccc(C(F)F)cc4F)n3)cc2F)nc2c(F)cc(C(=O)O)cc21 (single isomer, unassigned) [Example 502A] | 0.281
4 | CO[C@@H]1COCC1n1c(Cc2cc(F)c(-c3cccc(OCc4ccc(C#N)cc4F)n3)cc2F)nc2c(F)cc(C(=O)O)cc21 (mixture of isomers) [Example 256, 2-(4-(6-((4-cyano-2-fluorobenzyl)oxy)pyridin-2-yl)-2,5-difluorobenzyl)-4-fluoro-1-((4S)-4-methoxytetrahydrofuran-3-yl)-1H-benzo[d]imidazole-6-carboxylic acid] | 0.117
5 | COCCn1c(Cc2cc(F)c(-c3cccc(OCc4ccc(C#N)cc4)n3)cc2F)nc2ccc(C(=O)O)cc21 [Example 511, 2-(4-(6-((4-cyanobenzyl)oxy)pyridin-2-yl)-2,5-difluorobenzyl)-1-(2-methoxyethyl)-1H-benzo[d]imidazole-6-carboxylic acid] | 0.588
6 | N#Cc1ccc(COc2cccc(-c3cc(F)c(Cc4nc5ccc(C(=O)O)cc5n4C4COC[C@H]4CO)cc3F)n2)c(F)c1 (mixture of isomers) [Example 217, 2-(4-(6-((4-cyano-2-fluorobenzyl)oxy)pyridin-2-yl)-2,5-difluorobenzyl)-1-((3S,4R)-4-(hydroxymethyl)tetrahydrofuran-3-yl)-1H-benzo[d]imidazole-6-carboxylic acid] | 1.11
7 | CC1(C)COC[C@H]1n1c(Cc2cc(F)c(-c3ccnc(OCc4ccc(C#N)cc4)n3)cc2F)nc2c(F)cc(C(=O)O)cc21 [Example 194, (S)-2-(4-(2-((4-cyanobenzyl)oxy)pyrimidin-4-yl)-2,5-difluorobenzyl)-1-(4,4-dimethyltetrahydrofuran-3-yl)-4-fluoro-1H-benzo[d]imidazole-6-carboxylic acid] | 0.265
8 | CC1(C)COCC1n1c(Cc2cc(F)c(-c3cccc(OCc4cnc(-n5ccnc5)cc4Cl)n3)cc2F)nc2c(F)cc(C(=O)O)cc21 (centres unmarked) [Example 174, 2-(4-(6-((4-chloro-6-(1H-imidazol-1-yl)pyridin-3-yl)methoxy)pyridin-2-yl)-2,5-difluorobenzyl)-1-(4,4-dimethyltetrahydrofuran-3-yl)-4-fluoro-1H-benzo[d]imidazole-6-carboxylic Acid] | 0.051
9 | CC1(C)COC[C@H]1n1c(Cc2cc(F)c(-c3ccc(Cl)c(OCc4ccc(C#N)cc4F)n3)cc2F)nc2ccc(C(=O)O)cc21 [Example 434, (S)-2-(4-(5-chloro-6-((4-cyano-2-fluorobenzyl)oxy)pyridin-2-yl)-2,5-difluorobenzyl)-1-(4,4-dimethyltetrahydrofuran-3-yl)-1H-benzo[d]imidazole-6-carboxylic acid] | 0.058
10 | CC1(C)COC[C@H]1n1c(Cc2cc(F)c(-c3cccc(OCc4ncc(Cl)cc4F)n3)cc2F)nc2c(F)cc(C(=O)O)cc21 [Example 287, (S)-2-(4-(6-((5-chloro-3-fluoropyridin-2-yl)methoxy)pyridin-2-yl)-2,5-difluorobenzyl)-1-(4,4-dimethyltetrahydrofuran-3-yl)-4-fluoro-1H-benzo[d]imidazole-6-carboxylic acid] | 0.051
11 | Cc1cc(F)ccc1COc1cccc(-c2cc(F)c(Cc3nc4ccc(C(=O)O)cc4n3[C@@H]3COCC3(C)C)cc2F)n1 [Example 465, (S)-2-(2,5-difluoro-4-(6-((4-fluoro-2-methylbenzyl)oxy)pyridin-2-yl)benzyl)-1-(4,4-dimethyltetrahydrofuran-3-yl)-1H-benzo[d]imidazole-6-carboxylic acid] | 0.18
12 | CC1(C)COC[C@H]1n1c(Cc2ccc(-c3ccc(F)c(OCc4cnc(-n5ccnn5)cc4Cl)n3)cc2F)nc2c(F)cc(C(=O)O)cc21 [Example 154, (S)-2-(4-(6-((4-chloro-6-(1H-1,2,3-triazol-1-yl)pyridin-3-yl)methoxy)-5-fluoropyridin-2-yl)-2-fluorobenzyl)-1-(4,4-dimethyltetrahydrofuran-3-yl)-4-fluoro-1H-benzo[d]imidazole-6-carboxylic Acid] | 0.034
13 | C[C@H]1COC[C@H]1n1c(Cc2cc(F)c(-c3ccc(F)c(OCc4ccc(Cl)cc4F)n3)cc2F)nc2ccc(C(=O)O)cc21 [Example 471, 2-(4-(6-((4-chloro-2-fluorobenzyl)oxy)-5-fluoropyridin-2-yl)-2,5-difluorobenzyl)-1-((3S,4R)-4-methyltetrahydrofuran-3-yl)-1H-benzo[d]imidazole-6-carboxylic acid] | 0.041
14 | CO[C@@]1(C)COC[C@H]1n1c(Cc2cc(F)c(-c3cccc(OCc4ccc(Cl)cc4F)n3)cc2F)nc2ccc(C(=O)O)cc21 (single isomer, unassigned) [Example 474] | 0.181
15 | COCCn1c(Cc2cc(F)c(-c3cccc(OCc4cnc(-c5cnn(C(F)F)c5)cn4)n3)cc2F)nc2ccc(C(=O)O)cc21 [Example 36] | 1.04
16 | CC1(C)COC[C@H]1n1c(Cc2cc(F)c(-c3cccc(OCc4ccc(C#N)cc4F)n3)cc2F)nc2c(F)cc(C(=O)O)cc21 [Example 12, (S)-2-(4-(6-((4-cyano-2-fluorobenzyl)oxy)pyridin-2-yl)-2,5-difluorobenzyl)-1-(4,4-dimethyltetrahydrofuran-3-yl)-4-fluoro-1H-benzo[d]imidazole-6-carboxylic Acid] | 0.03
17 | CC1(C)COC[C@H]1n1c(Cc2cc(F)c(-c3cccc(OCc4ccc(-n5ccnn5)cc4)n3)cc2F)nc2ccc(C(=O)O)cc21 [Example 183, (S)-2-(4-(6-((4-(1H-1,2,3-triazol-1-yl)benzyl)oxy)pyridin-2-yl)-2,5-difluorobenzyl)-1-(4,4-dimethyltetrahydrofuran-3-yl)-1H-benzo[d]imidazole-6-carboxylic Acid] | 0.129
18 | COCCn1c(Cc2c(F)cc(-c3cccc(OCc4ccc(Cl)cc4F)n3)c(F)c2F)nc2c(F)cc(C(=O)O)cc21 [Example 251, 2-(4-(6-((4-chloro-2-fluorobenzyl)oxy)pyridin-2-yl)-2,3,6-trifluorobenzyl)-4-fluoro-1-(2-methoxyethyl)-1H-benzo[d]imidazole-6-carboxylic acid] | 0.079
19 | COCCn1c(Cc2cc(F)c(-c3cccc(OCc4ccc(-n5ccnc5)cc4F)n3)cc2F)nc2ccc(C(=O)O)cc21 [Example 61] | 0.83
20 | CC1(C)COC[C@H]1n1c(Cc2cc(F)c(-c3cccc(OCc4ccc(C(F)(F)F)cc4)n3)cc2F)nc2ccc(C(=O)O)cc21 [Example 358, (S)-2-(2,5-difluoro-4-(6-((4-(trifluoromethyl)benzyl)oxy)pyridin-2-yl)benzyl)-1-(4,4-dimethyltetrahydrofuran-3-yl)-1H-benzo[d]imidazole-6-carboxylic acid] | 0.124
21 | COCCn1c(Cc2cc(F)c(-c3cccc(OCc4ccc(C(F)(F)F)nc4Cl)n3)cc2F)nc2ccc(C(=O)O)cc21 [Example 34, 2-(4-(6-((2-chloro-6-(trifluoromethyl)pyridin-3-yl)methoxy)pyridin-2-yl)-2,5-difluorobenzyl)-1-(2-methoxyethyl)-1H-benzo[d]imidazole-6-carboxylic Acid] | 3.25
22 | COCCn1c(Cc2cc(F)c(-c3cccc(OCc4ccc(C#N)cc4)n3)cc2F)nc2ccc(C(=O)O)c(F)c21 [Example 375, 2-(4-(6-((4-cyanobenzyl)oxy)pyridin-2-yl)-2,5-difluorobenzyl)-7-fluoro-1-(2-methoxyethyl)-1H-benzo[d]imidazole-6-carboxylic acid] | 0.272
23 | Cc1cc(Cc2nc3c(F)cc(C(=O)O)cc3n2[C@@H]2COCC2(C)C)c(F)cc1-c1ccnc(OCc2ccc(Cl)cc2)n1 [Example 211, (S)-2-(4-(2-((4-chlorobenzyl)oxy)pyrimidin-4-yl)-2-fluoro-5-methylbenzyl)-1-(4,4-dimethyltetrahydrofuran-3-yl)-4-fluoro-1H-benzo[d]imidazole-6-carboxylic acid] | 0.258
24 | CC1(C)COC[C@H]1n1c(Cc2cc(F)c(-c3cccc(OCc4cc(F)c(F)cc4Cl)n3)cc2F)nc2ccc(C(=O)O)cc21 [Example 454, (S)-2-(4-(6-((2-chloro-4,5-difluorobenzyl)oxy)pyridin-2-yl)-2,5-difluorobenzyl)-1-(4,4-dimethyltetrahydrofuran-3-yl)-1H-benzo[d]imidazole-6-carboxylic acid] | 0.477
25 | CC1(C)COC[C@H]1n1c(Cc2cc(F)c(-c3ccc(Cl)c(OCc4ccc(Cl)cc4)n3)cc2F)nc2ccc(C(=O)O)cc21 [Example 433, (S)-2-(4-(5-chloro-6-((4-chlorobenzyl)oxy)pyridin-2-yl)-2,5-difluorobenzyl)-1-(4,4-dimethyltetrahydrofuran-3-yl)-1H-benzo[d]imidazole-6-carboxylic acid] | 0.209
26 | CC1(C)COC[C@H]1n1c(Cc2cc(F)c(-c3cccc(OCc4ccc(-n5ccnn5)cc4)n3)cc2F)nc2c(F)cc(C(=O)O)cc21 [Example 186, (S)-2-(4-(6-((4-(1H-1,2,3-triazol-1-yl)benzyl)oxy)pyridin-2-yl)-2,5-difluorobenzyl)-1-(4,4-dimethyltetrahydrofuran-3-yl)-4-fluoro-1H-benzo[d]imidazole-6-carboxylic acid] | 0.018

Source: US12570642B2, “GLP-IR modulating compounds” (Gilead Sciences, Inc., priority 2021, dated 2026)
